Like-named read-outs stand apart in the source and are kept apart here.
Experiments:
[1] = target: MurA (Escherichia coli, UniProt P0A749); test: Inhibition of MurA, colorimetric malachite green method; type: biochemical, bacterial; conditions: for remaining activity at 50 µM: 0.25 h, read-out: MurA (RA [%]); for RA (MurA, 50 µM): residual activity at 50 µM, Figure 1; for MurA RA (%): residual activity at 100 µM, Table 1
Method: (§1) Inhibition of Mur enzymes was monitored with the colorimetric malachite green method, which measured orthophosphate formed during reaction. The mixtures with a final volume of 50 µL contained:
MurA: 50 mM HEPES-NaOH, pH 7.8, 0.005% Triton X-114, 200 µM uridine-diphosphate-N-acetylglucosamine, 100 µM phosphoenolpyruvate, purified MurA, and 50 or 100 µM of each compound tested.
(§2) All compounds were soluble in the assay mixtures containing 5% DMSO (v/v). After incubation for 15 min (20 min for DdlB) at 37 °C, the enzyme reaction was terminated by addition of Biomol® reagent (100 µL) and absorbance was measured after 5 min at 650 nm (Synergy™ H4 microplate reader; BioTek Instruments, Inc., BioTek Gen5 Data Analysis Software, version 2.9, Santa Clara, CA, USA). All experiments were performed in duplicate.

[2] = target: MurC (Escherichia coli, UniProt P17952); test: Inhibition of MurC, colorimetric malachite green method; type: biochemical, bacterial; conditions: for remaining activity at 50 µM / remaining activity at 100 µM: 0.25 h; for remaining activity at 50 µM: read-out: MurC (RA [%]); for remaining activity at 100 µM: residual activity at 100 µM, read-out: MurC RA (%)
Chain of MurC (P17952 whole entry): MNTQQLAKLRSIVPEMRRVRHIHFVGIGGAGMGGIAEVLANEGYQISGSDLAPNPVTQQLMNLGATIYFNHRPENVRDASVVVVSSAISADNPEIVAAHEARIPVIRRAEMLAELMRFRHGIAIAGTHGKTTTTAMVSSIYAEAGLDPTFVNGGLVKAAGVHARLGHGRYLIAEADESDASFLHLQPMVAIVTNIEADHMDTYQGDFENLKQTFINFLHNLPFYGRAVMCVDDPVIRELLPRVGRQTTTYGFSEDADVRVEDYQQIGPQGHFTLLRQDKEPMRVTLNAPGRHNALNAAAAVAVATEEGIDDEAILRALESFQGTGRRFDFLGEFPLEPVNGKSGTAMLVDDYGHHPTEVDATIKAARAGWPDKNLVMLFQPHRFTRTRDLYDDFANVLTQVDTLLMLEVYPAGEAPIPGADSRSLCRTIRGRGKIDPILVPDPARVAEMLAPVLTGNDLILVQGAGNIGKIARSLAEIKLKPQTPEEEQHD
Method: as §1
MurC: 50 mM HEPES-NaOH, pH 8.0, 5 mM MgCl2, 0.005% Triton X-114, 120 µM L-Ala, 120 µM UDP-N-acetyl-muramic acid, 450 µM ATP, purified MurC, and 50 or 100 µM of each compound tested.
as §2

[3] = target: DdlB (Escherichia coli, UniProt P07862); test: Inhibition of DdlB, colorimetric malachite green method; type: biochemical, bacterial; conditions: 20 min, read-out: DdlB (RA [%])
Method: as §1
DdlB: 50 mM HEPES-NaOH, pH 8.0, 5 mM MgCl2, 6.5 mM (NH4)2SO4, 10 mM KCl, 0.005% Triton X-114, 700 µM D-Ala, 500 µM ATP, purified DdlB, and 50 µM of each compound tested.
as §2

[4] = target: human butyrylcholinesterase (hBChE) (Homo sapiens, UniProt P06276); test: biochemical; type: biochemical
Chain of human butyrylcholinesterase (hBChE) (P06276 29-602): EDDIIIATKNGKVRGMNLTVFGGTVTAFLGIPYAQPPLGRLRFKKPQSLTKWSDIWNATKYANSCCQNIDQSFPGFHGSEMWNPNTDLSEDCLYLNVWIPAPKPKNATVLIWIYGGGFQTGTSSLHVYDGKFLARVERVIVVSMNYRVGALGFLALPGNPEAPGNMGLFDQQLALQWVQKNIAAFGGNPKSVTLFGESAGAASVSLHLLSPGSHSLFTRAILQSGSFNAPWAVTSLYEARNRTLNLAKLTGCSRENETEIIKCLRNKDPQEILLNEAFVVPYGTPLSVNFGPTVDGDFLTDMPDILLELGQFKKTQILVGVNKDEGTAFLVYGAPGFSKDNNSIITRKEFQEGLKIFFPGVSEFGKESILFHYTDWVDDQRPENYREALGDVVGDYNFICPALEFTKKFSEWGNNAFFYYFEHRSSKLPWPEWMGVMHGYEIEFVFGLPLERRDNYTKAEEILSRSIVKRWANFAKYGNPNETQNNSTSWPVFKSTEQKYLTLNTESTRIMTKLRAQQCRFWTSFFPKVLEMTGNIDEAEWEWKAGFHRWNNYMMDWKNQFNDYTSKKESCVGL
Method: Enzyme solutions were prepared by diluting the concentrated enzyme stock solutions (4.6 mg/mL in 10 mM MES-NaOH buffer, pH 6.5) in a sodium phosphate-buffered solution (0.1 M, pH 8.0). […] The final organic solvent (DMSO) content was always 1% (v/v). Reactions were initiated by adding the substrate to the enzyme and inhibitor, which were preincubated for 5 min. […] To determine the blank value (b), the enzyme solution was replaced by a phosphate-buffered solution. The initial velocity (v) was calculated from the slope of the linear trend obtained, with each measurement performed in triplicate. The inhibitory potencies were expressed as RA=(vi − b)/(vo − b), where vi is the velocity in the presence of the test compounds and vo is the control velocity in the presence of DMSO. Seven different concentrations of each compound were used for the IC50 measurements. IC50 values were obtained by plotting the residual enzyme activities against the applied inhibitor concentrations, fitting the experimental data to the 4-parameter Hill equation:(1) Y=Bottom+(Top−Bottom)/1+10^((LogIC50−X)×Hill Slope) where X is the logarithm of the inhibitor concentration, and Y is the residual activity. GraphPad Prism 8.2.0 (GraphPad Software, San Diego, CA, USA) was used for the fitting procedure.

[5] = target: T1, hMAO-A (Homo sapiens, UniProt P21397); test: Inhibition of hMAO-A, fluorimetric Amplex Red assay; type: biochemical; conditions: residual activity at 10 µM
T1 construct: purchased Sigma Aldrich; host or cells: BTI-TN-5B1-4 baculovirus-infected insect cells
T1 sequence (P21397 1-527): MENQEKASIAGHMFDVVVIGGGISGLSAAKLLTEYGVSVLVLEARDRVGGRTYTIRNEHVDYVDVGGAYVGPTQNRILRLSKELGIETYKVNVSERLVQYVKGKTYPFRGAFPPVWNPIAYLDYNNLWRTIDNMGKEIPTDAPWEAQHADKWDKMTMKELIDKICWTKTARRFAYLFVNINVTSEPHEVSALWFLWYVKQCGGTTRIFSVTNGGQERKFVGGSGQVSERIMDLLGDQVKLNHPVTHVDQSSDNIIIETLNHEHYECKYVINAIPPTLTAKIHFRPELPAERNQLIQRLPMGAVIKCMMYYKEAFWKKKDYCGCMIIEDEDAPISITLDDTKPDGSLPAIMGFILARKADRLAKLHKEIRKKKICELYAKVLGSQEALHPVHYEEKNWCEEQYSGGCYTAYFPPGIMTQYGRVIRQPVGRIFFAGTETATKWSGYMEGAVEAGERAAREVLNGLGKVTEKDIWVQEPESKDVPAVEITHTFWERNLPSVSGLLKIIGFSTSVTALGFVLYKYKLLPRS
Method: The effects of the compounds on hMAO-A and hMAO-B were investigated using a fluorimetric assay, following a method previously described in the literature. Recombinant human microsomal hMAO enzymes expressed in BTI-TN-5B1-4 baculovirus-infected insect cells, horseradish peroxidase (HRP, type II, lyophilized powder), and p-tyramine hydrochloride were purchased from Sigma Aldrich. 10-Acetyl-3,7-dihydroxyphenoxazine (Amplex Red reagent) was synthesized as described in the literature.
Briefly, 100 µL of 50 mM sodium phosphate buffer (pH 7.4, 0.05% (v/v) Triton X-114), containing the compounds and hMAO-A or hMAO-B, was incubated for 15 min at 37 °C in a flat-bottomed black 96-well microplate protected from ambient light. After preincubation, the reaction was started by adding final concentrations of 200 µM Amplex Red reagent, 2 U/mL HRP, and 1 mM p-tyramine hydrochloride. Resorufin production was quantified based on the fluorescence produced (λex = 530 nm; λem = 590 nm) at 37 °C over a 20 min period. For the control experiments, DMSO was used instead of appropriate dilutions of the compounds in DMSO. For the determination of blank (b), the enzyme solution was replaced by a phosphate-buffered solution. Initial velocities were calculated from the obtained trend, with each measurement performed in duplicate. Specific fluorescence emission to determine the final results was calculated after subtracting the blank activity (b). Inhibitory potencies were expressed as RAs, and IC50 values were calculated as described in the section “Inhibition of hBChE and mAChE” above.

[6] = residual activity at 10 µM; Mini Library screen, Table S1
[7] = Mini Library screen, Table S1, read-out: hMAO-A (RA [%])
[8] = residual activity at 10 µM; Table 4; read-out: hBChE RA (%)
[9] = residual activity at 10 µM; Table 1; read-out: hBChE RA (%)
[10] = Table 3, read-out: hMAO-A RA (%)

Chain of MurA (P0A749 whole entry): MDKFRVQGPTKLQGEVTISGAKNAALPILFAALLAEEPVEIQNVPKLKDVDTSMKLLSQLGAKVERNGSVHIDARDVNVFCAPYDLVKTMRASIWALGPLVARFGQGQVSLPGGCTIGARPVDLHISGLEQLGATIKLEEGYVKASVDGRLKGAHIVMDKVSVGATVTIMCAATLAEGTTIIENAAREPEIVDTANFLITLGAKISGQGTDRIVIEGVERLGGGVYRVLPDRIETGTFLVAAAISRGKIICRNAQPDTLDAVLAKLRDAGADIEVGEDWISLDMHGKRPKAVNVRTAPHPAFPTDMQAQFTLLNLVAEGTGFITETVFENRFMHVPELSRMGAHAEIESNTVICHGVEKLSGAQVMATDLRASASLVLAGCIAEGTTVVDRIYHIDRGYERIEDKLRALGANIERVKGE

Row | SMILES | remaining activity at 50 µM [1] [%] | IC50 [2] [µM] | remaining activity at 50 µM [2] [%] | remaining activity at 100 µM ([2]; Table 2) [%] | remaining activity at 50 µM [3] [%] | hBChE RA (%) [4, 6] [%] | remaining activity at 10 µM [5, 7] [%] | IC50 ([2]; Table 2, IC50 ± SEM, read-out: MurC IC50) [µM] | IC50 ([4]; Table 4; IC50 ± SEM; read-out: hBChE IC50) [µM] | remaining activity at 10 µM [4, 8] [%] | IC50 ([4]; read-out: hBChE IC50; Table 4; IC50 ± SEM) [µM] | IC50 [1] [µM] | RA (MurA, 50 µM) [1] [%] | MurA RA (%) [1] [%] | IC50 ([4]; Table 1; IC50 ± SEM; read-out: hBChE IC50) [µM] | remaining activity at 10 µM [4, 9] [%] | remaining activity at 10 µM [5, 10] [%] | hMAO-A RA [%] ([5]; Table S3)
1 | CCCCc1nc2ccn(Cc3ccccc3)c(=O)c2n1Cc1ccc(-c2ccccc2-c2nnn[nH]2)cc1 [MS-ML03] | 100 | 85 ± 15 | 61 | 40 | 81 | 87 | 83 |  |  |  |  |  |  |  |  |  |  | 
2 | CCCCc1nc2ccn(CC(=O)N3CCCCC3)c(=O)c2n1Cc1ccc(-c2ccccc2S(=O)(=O)NC(=O)OCc2ccccc2)cc1F [MS-ML05] | 90 |  | 55 | 32 | 91 | 91 | 79 | 101 ± 23 |  |  |  |  |  |  |  |  |  | 
3 | C1=C(c2ccccc2)CCN(CCCCc2c[nH]c3ccccc23)C1 [MS-ML10] | 110 |  | 74 |  | 96 |  | 75 |  | 0.0356 ± 0.0003 | 0 |  |  |  |  |  |  |  | 
4 | Oc1ccc2[nH]cc(CCCCN3CC=C(c4ccccc4)CC3)c2c1 [MS-ML11] | 100 |  | 89 |  | 95 |  | 31 |  |  | 0 | 0.0788 ± 0.0103 |  |  |  |  |  |  | 
5 | CCCCCCN(Cc1ccc(C#Cc2ccc(CCCC)cc2)cc1)c1ccc(O)c(C(=O)O)c1 [MS-ML24] | 15 |  | 83 |  | 116 | 60 | 57 |  |  |  |  | 7 ± 3 | 15 | 0 | 0.949 ± 0.046 | 9 |  | 
6 | CCCCCCN(Cc1ccc(C#Cc2ccc(CCCC)cc2)cc1)C(=O)c1ccc(O)c(C(=O)O)c1 [MS-ML25] | 0 |  | 98 |  | 114 | 108 | 73 |  |  |  |  | 6 ± 2 | 0 | 0 |  | 55 |  | 
7 | CCCCCCN(Cc1ccc(C#Cc2ccc(CCCC)cc2)cc1)c1ccc(F)c(C(=O)O)c1 [MS-ML26] | 7 |  | 73 |  | 114 | 68 | 60 |  |  |  |  | 7 ± 4 | 7 | 0 |  | 57 |  | 
8 | O=C(OC[C@H]1CCCN1c1ccnc2ncnn12)c1ccc(Oc2ccccc2)nc1 [MS-ML31] | 94 |  | 94 |  | 98 | 84 | 78 |  |  |  |  |  |  |  |  |  | 98 | 98
9 | O=C(Nc1ccc(Oc2ccncc2)cc1)Nc1cc(C(F)(F)F)ccc1-n1cncn1 [MS-ML80] | 93 |  | 96 |  | 94 | 73 | 82 |  |  |  |  |  |  |  |  |  | 78 | 
